Where only a bound is given, the exact number is not on record here.

Our source for the IC50 values is ChEMBL document CHEMBL4819142, “Synthesis of propargylamine mycophenolate analogues and their selective cytotoxic activity towards neuroblastoma SH-SY5Y cell line” (Bioorg Med Chem Lett, 2021).

Experiment [1] is described as follows: Cytotoxicity against human KKUM213 cells assessed as growth inhibition measured by SRB assay. As to conditions: KKU-M213. The format is functional, cell-based.
In a further experiment the test system is FaDu. As to the kind of experiment: Cytotoxicity against human FaDu cells assessed as growth inhibition measured by SRB assay. The format is functional, cell-based.
For the next experiment, the system named is HT-29. The experiment is described as follows: Cytotoxicity against human HT-29 cells assessed as growth inhibition measured by SRB assay. The format is functional, cell-based. Background: In SRB staining, fixed cells bind dye roughly in proportion to their protein.
In a further experiment the test system is MDA-MB-231. The experiment is described as follows: Cytotoxicity against human MDA-MB-231 cells assessed as growth inhibition measured by SRB assay. It is filed as functional, cell-based.
A further experiment concerns A549. As to the kind of experiment: Cytotoxicity against human A549 cells assessed as growth inhibition measured by SRB assay. It is filed as functional, cell-based.
The next experiment deals with SH-SY5Y. The experiment is described as follows: Cytotoxicity against human SH-SY5Y cells assessed as growth inhibition measured by SRB assay. The format is functional, cell-based.
Experiment [2] in a line: Cytotoxicity against human […] cells assessed as growth inhibition measured by SRB assay. The format is cell-based.

What is called IC50 is the midpoint of a concentration-inhibition curve. With `COC(=O)CC/C(C)=C/Cc1c(OC)c(C)c2c(c1OCC#CCN1CCN(c3ccccc3)CC1)C(=O)OC2`, the half-inhibitory concentration (IC50) in experiment [1] is over 50 µM; in the experiment on FaDu it was over 50 µM; with HT-29 it was over 50 µM; in the experiment on MDA-MB-231, over 50 µM; with A549, 22 µM; in the experiment on SH-SY5Y it was 9.14 µM. Moreover, the IC50 in experiment [2] is over 50 µM.
As for `COC(=O)CC/C(C)=C/Cc1c(O)c2c(c(C)c1OC)COC2=O`, the IC50 in experiment [1] was 7.45 µM; in the experiment on FaDu, 6.15 µM; in the experiment with HT-29, 23.7 µM; in the experiment on MDA-MB-231, 9.62 µM; in the experiment with A549, 0.82 µM; in the experiment on SH-SY5Y, 0.26 µM. Also, the IC50 in experiment [2] turned out to be 5.82 µM.
On to `COC(=O)CC/C(C)=C/Cc1c(OC)c(C)c2c(c1OCC#CCN1CCC(c3ccccc3)c3ccccc31)C(=O)OC2` (configuration not stated), for which the IC50 in experiment [1] is 25.9 µM; in the experiment on FaDu it was 24.6 µM; in the experiment with HT-29 it was 39.5 µM; in the experiment with MDA-MB-231 it was 28.7 µM; with A549 it was 7.68 µM; in the experiment with SH-SY5Y, 6.45 µM. In addition, in experiment [2], the IC50 is 23.3 µM.
Regarding `COC(=O)CC/C(C)=C/Cc1c(OC)c(C)c2c(c1OCC#CCN1CCN(c3ccc(C)cc3)CC1)C(=O)OC2`, the IC50 is over 50 µM in experiment [1]; over 50 µM with FaDu; over 50 µM with HT-29; over 50 µM in the experiment on MDA-MB-231; over 50 µM with A549; 37.7 µM in the experiment on SH-SY5Y. The IC50 in experiment [2] was over 50 µM.
On to `COC(=O)CC/C(C)=C/Cc1c(OC)c(C)c2c(c1OCC#CCN1CCCC1)C(=O)OC2`, for which the IC50 in experiment [1] was over 50 µM; in the experiment on FaDu, over 50 µM; in the experiment with HT-29, 46.5 µM; in the experiment on MDA-MB-231, over 50 µM; in the experiment on A549 it was 35.9 µM; with SH-SY5Y, 31.1 µM. Further, the IC50 in experiment [2] is over 50 µM.
As for `COC(=O)CC/C(C)=C/Cc1c(OC)c(C)c2c(c1OCC#CCN1CCN(Cc3ccc4c(c3)OCO4)CC1)C(=O)OC2`, the IC50 in experiment [1] was over 50 µM; in the experiment with FaDu it was over 50 µM; with HT-29 it was over 50 µM; in the experiment with MDA-MB-231, over 50 µM; in the experiment with A549 it was 45.5 µM; with SH-SY5Y, 34.8 µM. In addition, the IC50 in experiment [2] was over 50 µM.
For `COC(=O)CC/C(C)=C/Cc1c(OC)c(C)c2c(c1OCC#CCN1CCN(C(C)=O)CC1)C(=O)OC2`, the IC50 (in experiment [1]; in the experiment with FaDu; with HT-29; in the experiment on MDA-MB-231; with A549; in the experiment with SH-SY5Y) was over 50 µM throughout. The IC50 in experiment [2] was over 50 µM.
For `COC(=O)CC/C(C)=C/Cc1c(OC)c(C)c2c(c1OCC#CCN1CCC(C(=O)OC)CC1)C(=O)OC2`, the concentration for half-maximal inhibition (IC50) was over 50 µM in experiment [1]; over 50 µM with FaDu; over 50 µM in the experiment with HT-29; over 50 µM in the experiment on MDA-MB-231; 40.5 µM in the experiment with A549; 41.2 µM in the experiment with SH-SY5Y. In addition, in experiment [2], the IC50 was over 50 µM.
Take `COC(=O)CC/C(C)=C/Cc1c(OC)c(C)c2c(c1OCC#CCN1CCC(Cc3ccccc3)CC1)C(=O)OC2`: the IC50 is over 50 µM in experiment [1]; over 50 µM with FaDu; over 50 µM in the experiment with HT-29; over 50 µM with MDA-MB-231; 40.7 µM in the experiment with A549; 24.5 µM in the experiment with SH-SY5Y. Besides, the IC50 in experiment [2] was over 50 µM.
In the case of `COC(=O)CC/C(C)=C/Cc1c(OC)c(C)c2c(c1OCC#CCN1CCOCC1)C(=O)OC2`, the IC50 (in experiment [1]; in the experiment on FaDu; in the experiment with HT-29; in the experiment with MDA-MB-231; in the experiment on A549; in the experiment with SH-SY5Y) was over 50 µM throughout. In addition, the IC50 in experiment [2] is over 50 µM.
Consider `COC(=O)CC/C(C)=C/Cc1c(OC)c(C)c2c(c1OCC#CCN1CCN(C(c3ccccc3)c3ccc(Cl)cc3)CC1)C(=O)OC2` (configuration not stated), for which the IC50 was over 50 µM in experiment [1]; over 50 µM in the experiment on FaDu; over 50 µM in the experiment with HT-29; over 50 µM in the experiment on MDA-MB-231; 29.1 µM in the experiment with A549; 9.9 µM with SH-SY5Y. Besides, the IC50 in experiment [2] is over 50 µM.
